Half-life, CLint scaled and IC50 data for nine compounds are collected here from patent EP4722213A1, “NITROGEN-CONTAINING FUNCTIONAL GROUP-SUBSTITUTED PYRIDAZINOPYRIDONE DERIVATIVE AND USE THEREOF” (Sichuan Huiyu Pharmaceutical Co., Ltd., priority 2023, dated 2024).

What is called half-life is the time needed for the level to fall by half in the phase considered. Higher therefore signals slow loss. One may read the IC50 as the midpoint of a concentration-inhibition curve. Read a high IC50 as lower potency.

The nature of series [1]: Rat liver microsomal metabolic stability. The series is classed as in vitro ADME. The following applies: rat liver microsomes; for half-life at 1 µM: NADPH, 37°C; for CLint scaled at 1 µM: calculated from T1/2, fu defaulted to 1, read-out: CL(liver). The text has this:
Metabolic stability affects the clearance rate, half-life, and oral bioavailability of compounds in the body, and is one of the most important ADME drug-like properties of compounds. Hepatocyte microsomal stability assay is a commonly used method for studying metabolic stability. In the present disclosure, rat liver microsomes are used to determine and investigate the metabolic stability of compounds.
Preparation of compound stock solution: an appropriate amount of the test compound and testosterone was taken, and a 1 mM stock solution was prepared with DMSO, which was stored in a refrigerator at 4°C.
Preparation of compound working solution: The 1 mM compound stock solution was taken respectively, and then diluted to 100 µM with acetonitrile-water (v:v = 1:1) to obtain the working solution.
Preparation of NADPH working solution: an appropriate amount of NADPH was weighed and dissolved in 16 mM MgCl2 to prepare a NADPH working solution with a concentration of 4.0 mM.
Preparation of rat liver microsome working solution: an appropriate amount of rat liver microsomes was taken and diluted with PBS to obtain a liver microsome working solution with a concentration of 1 mg/mL.
In the incubation system, 48 µL of PBS, 100 µL of rat liver microsome working solution, and 2 µL of the test compound working solution were sequentially added and mixed well. After pre-incubation at 37°C for 5 min, 50 µL of NADPH was added to initiate the reaction. After incubation for the corresponding time points, an appropriate amount of ice-cold acetonitrile containing an internal standard was added to terminate the reaction. The mixture was vortexed to mix well, centrifuged, and the supernatant was collected. The supernatant was injected into LC-MS/MS for detection of the residual metabolic amount of the compound.
Softwares of Excel, etc. were used for data processing according to the following formula. Ct = C0 •e^(−ke •t) [formula] when Ct = (1)/(2)C0 [formula] , T1/2 = (Ln2)/(ke) = (0.693)/(ke) [formula] CLint(mic) = (0.693)/(In vitro T1/2)•(1)/(mg/mL microsomal protein in reaction system) [formula] CLint(liver) = CLint(mic) •(mg microsomes)/(g liver)•(g liver)/(kg body weight) [formula] CL(liver) = (CLint(liver)×fu×Qh)/(CLint(liver)×fu+Qh) [formula] fu (unbound fraction in blood) was defaulted to be 1.

Another series deals with T1, SOS1 (Homo sapiens, UniProt Q07889).
T1 sequence (Q07889 1-1333): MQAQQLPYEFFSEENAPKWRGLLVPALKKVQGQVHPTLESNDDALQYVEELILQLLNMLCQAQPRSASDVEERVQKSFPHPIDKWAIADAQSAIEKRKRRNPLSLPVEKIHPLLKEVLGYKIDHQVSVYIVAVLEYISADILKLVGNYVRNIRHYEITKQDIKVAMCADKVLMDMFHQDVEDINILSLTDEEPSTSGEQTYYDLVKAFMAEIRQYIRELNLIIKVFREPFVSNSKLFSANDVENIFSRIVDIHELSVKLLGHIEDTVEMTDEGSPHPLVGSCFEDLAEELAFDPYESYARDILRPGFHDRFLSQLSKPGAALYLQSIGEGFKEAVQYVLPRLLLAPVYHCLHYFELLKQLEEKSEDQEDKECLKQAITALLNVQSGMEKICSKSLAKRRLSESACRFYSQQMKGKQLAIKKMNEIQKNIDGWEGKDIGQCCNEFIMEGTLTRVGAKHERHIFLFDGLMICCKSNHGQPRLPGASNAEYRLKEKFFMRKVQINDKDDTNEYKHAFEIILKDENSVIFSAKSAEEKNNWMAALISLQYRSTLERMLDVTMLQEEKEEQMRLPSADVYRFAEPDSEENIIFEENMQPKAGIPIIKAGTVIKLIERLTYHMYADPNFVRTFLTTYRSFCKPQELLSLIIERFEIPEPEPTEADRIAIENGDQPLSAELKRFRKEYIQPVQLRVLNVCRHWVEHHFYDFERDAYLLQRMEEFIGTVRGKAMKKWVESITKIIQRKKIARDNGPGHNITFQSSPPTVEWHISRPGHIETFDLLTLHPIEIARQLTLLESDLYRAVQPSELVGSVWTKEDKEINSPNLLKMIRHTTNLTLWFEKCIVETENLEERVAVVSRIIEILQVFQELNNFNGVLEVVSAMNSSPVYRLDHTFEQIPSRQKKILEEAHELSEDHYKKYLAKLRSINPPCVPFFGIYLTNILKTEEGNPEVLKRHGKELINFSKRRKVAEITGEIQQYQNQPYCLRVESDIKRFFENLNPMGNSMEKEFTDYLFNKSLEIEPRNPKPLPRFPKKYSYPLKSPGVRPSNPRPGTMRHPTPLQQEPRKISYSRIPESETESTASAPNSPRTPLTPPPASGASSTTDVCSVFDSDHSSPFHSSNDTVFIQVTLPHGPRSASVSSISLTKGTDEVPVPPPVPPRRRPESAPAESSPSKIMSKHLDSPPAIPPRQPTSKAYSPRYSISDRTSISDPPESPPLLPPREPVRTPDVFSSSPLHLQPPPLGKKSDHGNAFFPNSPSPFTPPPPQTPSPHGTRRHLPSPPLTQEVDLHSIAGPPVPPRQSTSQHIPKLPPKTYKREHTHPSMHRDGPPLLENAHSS
Put plainly: biochemical.

In the case of `C[C@@H](Nc1nnc(NC2CC2)c2cc(=O)n(C3(C)CC3)cc12)c1cccc(C(F)F)c1F` [Example 10, (R)-1-(cyclopropylamino) -4-((1-(3-(difluoromethyl)-2-fluorophenyl)ethyl)amino)-6-(1-methylcyclopropyl) pyrido[3,4-d]pyridazin-7(6H)-one], in series [1], the half-life at 1 µM worked out at 0.483 h and the CLint scaled at 1 µM is 33.6 mL/min/kg. This compound also displayed an IC50 against SOS1 of 5.8 nM.
`C[C@@H](Nc1nnc(NC2(C)CC2)c2cc(=O)n(C3(C)CC3)cc12)c1cccc(C(F)F)c1F` [Example 11, (R)-4-((1-(3-(difluoromethyl)-2-fluorophenyl)ethyl)amino)-6-(1-methylcyclopropyl)-1-((1-methylcyclopropyl)amino)pyrido[3,4-d]pyridazin-7(6H)-one]: in series [1], the half-life at 1 µM came to 0.855 h and the CLint scaled at 1 µM is 25.8 mL/min/kg. Besides, the IC50 against SOS1 worked out at 1.4 nM.
For the compound `C[C@@H](Nc1nnc(N2CCC2)c2cc(=O)n(C3CC3)cc12)c1cccc(C(F)F)c1F` [Example 15, (R)-1-(azetidin-1-yl)-6-cyclopropyl-4-((1-(3-(difluoromethyl)-2-fluorophenyl)ethyl)amino)pyrido[3,4-d]pyridazin-7(6H)-one], in series [1], the half-life at 1 µM is 0.787 h and the CLint scaled at 1 µM is 27 mL/min/kg. On SOS1, this compound came in with a concentration for half-maximal inhibition (IC50) of 5.5 nM.
Taken in the same sequence, the figures for `CNc1nnc(N[C@H](C)c2cccc(C#N)c2C)c2cn(C3CC3)c(=O)cc12` [Example 38, (R)-3-(1-((6-cyclopropyl-1-(methylamino)-7-oxo-6,7-dihydropyrido[3,4-d]pyridazin-4-yl)amino)ethyl)-2-methylbenzonitrile] were 3.55 h, 9.7 mL/min/kg and 5 nM.
For the compound `Cc1c([C@@H](C)Nc2nnc(N3CCC3)c3cc(=O)n(C4CC4)cc23)cccc1C(F)(F)F.O=CO` [Example 50, (R)-1-(azetidin-1-yl)-6-cyclopropyl-4-((1-(2-methyl-3-(trifluoromethyl)phenyl)ethyl)amino)pyr ido[3,4-d]pyridazin-7(6H)-one formate], in series [1], the half-life at 1 µM was determined as 2.18 h and the CLint scaled at 1 µM was 14.2 mL/min/kg. For the same compound, on SOS1, the midpoint of inhibition, the IC50, lay at 5.8 nM.
`C[C@@H](Nc1nnc(N2CCNCC2)c2cc(=O)n(C3(C)CC3)cc12)c1cccc(C(F)F)c1F` [Example 78, (R)-4-((1-(3-(difluoromethyl)-2-fluorophenyl)ethyl)amino)-6-(1-methylcyclopropyl)-1-(piperazin-1-yl)pyrido[3,4-d]pyridazin-7(6H)-one]: in series [1], the half-life at 1 µM was determined as 4.22 h and the CLint scaled at 1 µM is 8.4 mL/min/kg. On SOS1, this compound gave an IC50 of 4.6 nM.
In turn, `C[C@@H](Nc1nnc(N2CCN(C)CC2)c2cc(=O)n(C3(C)CC3)cc12)c1cccc(C(F)(F)CO)c1` [Example 226, (R)-4-((1-(3-(1,1-difluoro-2-hydroxyethyl)phenyl)ethyl)amino)-6-(1-methylcyclopropyl)-1-(4-methylpiperazin-1-yl)pyrido[3,4-d]pyridazin-7(6H)-one] showed an IC50 against SOS1 of 4.3 nM.
On to `C[C@@H](Nc1nnc(N2CCC(CO)C2)c2cc(=O)n(C3(C)CC3)cc12)c1cccc(C(F)(F)CO)c1` (stereo partly drawn) [Example 228, 4-(((R)-1-(3-(1,1-difluoro-2-hydroxyethyl)phenyl)ethyl)amino)-1-(3-(hydroxymethyl)pyrrolidin-1-yl)-6-(1-methylcyclopropyl) pyrido[3,4-d]pyridazin-7(6H)-one], for which, at SOS1, 4.4 nM corresponded to half-maximal inhibition (IC50).
`C[C@@H](Nc1nnc(N2CC(CO)C2)c2cc(=O)n(C3(C)CC3)cc12)c1cccc(C(F)(F)CO)c1` [Example 229, (R)-4-((1-(3-(1,1-difluoro-2-hydroxyethyl)phenyl)ethyl)amino)-1-(3-(hydroxymethyl)azetidin-1-yl)-6-(1-methylcyclopropyl) pyrido[3,4-d]pyridazin-7(6H)-one] came in with a half-maximal inhibitory concentration (IC50) against SOS1 of 4.5 nM.
